Experimental data: patent publication US9120820B2, “Fluorescent molecular probes for use in assays that measure test compound competitive binding with SAM-utilizing proteins” (CAYMAN CHEMICAL COMPANY, INCORPORATED, priority 2011, dated 2015)
pKd: −log10 of the molar value.

Legend:
NSD2 = target: T1, NSD2 (Homo sapiens, UniProt O96028); test: Fluorescence polarization saturation binding of fluorescent probe to NSD2
T1 construct: purchased Cayman 10758
T1 sequence (O96028 1-1365): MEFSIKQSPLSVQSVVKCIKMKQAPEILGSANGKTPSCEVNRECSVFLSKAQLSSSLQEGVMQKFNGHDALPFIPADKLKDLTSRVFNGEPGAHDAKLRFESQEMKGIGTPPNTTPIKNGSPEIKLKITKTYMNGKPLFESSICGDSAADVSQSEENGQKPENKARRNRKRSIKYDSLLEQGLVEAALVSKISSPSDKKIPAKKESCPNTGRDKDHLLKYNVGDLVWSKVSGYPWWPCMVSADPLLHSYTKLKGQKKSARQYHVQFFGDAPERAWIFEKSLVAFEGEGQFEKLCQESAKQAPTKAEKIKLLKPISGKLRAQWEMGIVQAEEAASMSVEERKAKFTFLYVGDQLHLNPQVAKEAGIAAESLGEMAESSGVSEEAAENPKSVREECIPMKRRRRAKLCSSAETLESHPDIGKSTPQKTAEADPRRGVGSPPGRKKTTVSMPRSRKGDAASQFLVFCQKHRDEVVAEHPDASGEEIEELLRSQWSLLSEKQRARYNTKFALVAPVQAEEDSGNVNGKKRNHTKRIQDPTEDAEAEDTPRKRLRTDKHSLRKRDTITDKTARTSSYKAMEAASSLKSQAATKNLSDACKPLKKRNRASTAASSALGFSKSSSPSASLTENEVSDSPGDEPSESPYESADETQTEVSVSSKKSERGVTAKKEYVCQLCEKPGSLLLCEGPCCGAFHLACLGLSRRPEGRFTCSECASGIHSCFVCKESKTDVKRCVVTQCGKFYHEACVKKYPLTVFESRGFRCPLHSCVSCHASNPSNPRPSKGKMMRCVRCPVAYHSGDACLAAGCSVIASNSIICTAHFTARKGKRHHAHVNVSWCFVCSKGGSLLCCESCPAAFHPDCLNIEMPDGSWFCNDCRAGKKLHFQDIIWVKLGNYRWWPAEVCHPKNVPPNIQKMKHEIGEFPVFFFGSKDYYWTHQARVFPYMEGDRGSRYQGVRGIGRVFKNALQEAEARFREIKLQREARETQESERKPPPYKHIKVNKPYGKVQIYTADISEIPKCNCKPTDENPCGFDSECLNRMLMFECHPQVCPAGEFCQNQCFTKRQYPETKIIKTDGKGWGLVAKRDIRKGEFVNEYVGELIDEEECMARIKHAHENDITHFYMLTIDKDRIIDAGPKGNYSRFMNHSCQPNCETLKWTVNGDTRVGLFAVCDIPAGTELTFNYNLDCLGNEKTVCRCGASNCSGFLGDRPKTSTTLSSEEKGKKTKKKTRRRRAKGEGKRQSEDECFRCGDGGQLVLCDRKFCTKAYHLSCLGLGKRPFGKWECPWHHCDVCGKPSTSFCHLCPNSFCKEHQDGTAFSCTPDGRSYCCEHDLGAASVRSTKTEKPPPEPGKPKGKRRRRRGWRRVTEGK
Protocol: Methods: The experiment was performed once, with two replicate wells for all methyltransferases per condition. The sole exception to this is NSD2 (see details below). The assay was performed in a ½ area, black, 96-well plate (Corning #3686) in a final volume of 30 μL. Methyltransferases (Table 1) were serially diluted two-fold in FP buffer (Cayman Catalog #600028) and 15 μL of a given dilution were added per well to the assay plate. Fifteen microliters of sinefungin probe 1A (10 nM) were added to each well, giving a final sinefungin probe 1A concentration of 5 nM. This concentration of sinefungin probe 1A was chosen because it had at least a 10-fold increase in fluorescence (excitation max 575 nm/emission max 615 nm) over background (buffer). The mixture was incubated in the dark at room temperature for 30 minutes and its fluorescence polarization was read using a BioTek Synergy 4.
For NSD2, the assay was performed essentially as above, but with the following changes. The assay was performed in a 20 μL total volume (10 μL NSD2/10 μL sinefungin probe 1) in low-volume, black, 384-well plates (Nunc #264705). The concentrations of sinefungin probe 1A and methyltransferase were identical to that of the 96-well format. The assay was performed once with three replicate wells per condition.

DNMT3b = DNMT3b (Homo sapiens, UniProt Q9UBC3); test: Fluorescence polarization saturation binding of fluorescent probe to DNMT3b; settings: saturation-binding format, read-out: Sinefungin Probe 1A Affinity
Protocol: (§1) Sinefungin Probe 1A was tested for the ability to bind to 16 proteins, including several non-methlytransferase protein controls (Table 2). This probe binds to 4 methyltransferases (SET7/9, G9a, GLP, MLL) with Kd values <2 μM.

PRMT4 = target: T2, PRMT4 (Homo sapiens, UniProt Q86X55); test: Fluorescence polarization saturation binding of fluorescent probe to PRMT4; settings: saturation-binding format, read-out: Sinefungin Probe 1A Affinity
T2 construct: made in house
T2 sequence (Q86X55 1-608): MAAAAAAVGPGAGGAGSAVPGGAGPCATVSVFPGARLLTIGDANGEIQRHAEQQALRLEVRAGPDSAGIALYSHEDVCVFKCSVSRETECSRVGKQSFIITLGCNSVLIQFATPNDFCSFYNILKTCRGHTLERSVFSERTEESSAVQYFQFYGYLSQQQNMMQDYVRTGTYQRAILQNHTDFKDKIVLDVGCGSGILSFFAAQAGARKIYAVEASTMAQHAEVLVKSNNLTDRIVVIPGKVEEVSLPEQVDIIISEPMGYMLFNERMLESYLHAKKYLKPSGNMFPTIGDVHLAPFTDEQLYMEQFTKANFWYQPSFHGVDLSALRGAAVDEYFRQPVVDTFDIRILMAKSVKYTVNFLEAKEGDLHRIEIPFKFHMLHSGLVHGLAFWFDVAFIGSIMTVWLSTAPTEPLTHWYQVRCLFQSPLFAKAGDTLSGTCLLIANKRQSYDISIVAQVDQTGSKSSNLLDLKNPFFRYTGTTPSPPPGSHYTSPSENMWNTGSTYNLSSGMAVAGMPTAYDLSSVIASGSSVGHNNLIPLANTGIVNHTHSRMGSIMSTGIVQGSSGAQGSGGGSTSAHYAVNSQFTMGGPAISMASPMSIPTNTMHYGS
Protocol: as §1

ASH2L = ASH2L (Homo sapiens, UniProt Q9UBL3); test: Fluorescence polarization saturation binding of fluorescent probe to ASH2L; settings: saturation-binding format, read-out: Sinefungin Probe 1A Affinity
Sequence of ASH2L (Q9UBL3 whole entry, species assumed): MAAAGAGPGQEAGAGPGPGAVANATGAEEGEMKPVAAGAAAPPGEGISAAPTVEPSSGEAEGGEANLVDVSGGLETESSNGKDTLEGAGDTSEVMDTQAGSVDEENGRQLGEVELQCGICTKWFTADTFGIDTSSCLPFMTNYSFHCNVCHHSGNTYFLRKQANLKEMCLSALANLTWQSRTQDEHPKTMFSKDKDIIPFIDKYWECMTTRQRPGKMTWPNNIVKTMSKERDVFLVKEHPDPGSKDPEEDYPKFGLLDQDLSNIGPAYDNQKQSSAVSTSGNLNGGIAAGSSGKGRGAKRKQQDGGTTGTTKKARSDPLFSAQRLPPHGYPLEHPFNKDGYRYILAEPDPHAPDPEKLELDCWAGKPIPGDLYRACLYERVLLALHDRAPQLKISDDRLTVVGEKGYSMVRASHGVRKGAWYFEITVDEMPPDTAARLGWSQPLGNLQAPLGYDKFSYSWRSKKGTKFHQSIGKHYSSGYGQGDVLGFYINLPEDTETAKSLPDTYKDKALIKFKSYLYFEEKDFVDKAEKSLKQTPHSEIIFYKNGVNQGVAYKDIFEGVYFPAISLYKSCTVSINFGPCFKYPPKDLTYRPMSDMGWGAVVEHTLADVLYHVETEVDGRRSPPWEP
Protocol: as §1

`Nc1ncnc2c1ncn2[C@@H]1O[C@H](C[C@@H](N)CC[C@H](N)C(=O)O)[C@@H](OCc2cnnn2CCCCCCNC(=O)OC2CCN(C(=O)c3ccccc3C3=c4cc5c6c(c4Oc4c3cc3c7c4CCCN7CCC3)CCC[N+]=6CCC5)CC2)[C@H]1O` [Sinefungin Probe 1A] was tested, and the “measurable affinity for the probe” value (NSD2; Example 8, NSD2, 5 nM probe, 384-well, FIG. 2) was “only SET7/9 and G9a displayed measurable affinity”, the pKd (NSD2; NSD2, saturation-binding format, read-out: Sinefungin Probe 1A Affinity) was < 5.70 and the pKd (DNMT3b) was < 5.70. The pKd (PRMT4) was < 5.70 and the pKd (ASH2L) was < 5.00.
